Measured values from US12583889B2, “Cell penetrating peptides” (Oxford University Innovation Limited, priority 2017, dated 2026).
Marks after values point to notes of the source that are not given here.

Tests used:
human SMN2-gene = assay: Full-length SMN2 transcript qPCR in tissues of adult SMA mice after intravenous peptide-PMO conjugate; type: in vivo; conditions: for full-length SMN2 transcripts, mean expression level, Brainstem / full-length SMN2 transcripts, mean expression level, Cerebellum / full-length SMN2 transcripts, mean expression level, Cortex / full-length SMN2 transcripts, mean expression level, Liver / full-length SMN2 transcripts, mean expression level, Gastroc / full-length SMN2 transcripts, mean expression level, Quad / full-length SMN2 transcripts, mean expression level, TA / full-length SMN2 transcripts, mean expression level, Cervical / full-length SMN2 transcripts, mean expression level, Lumbar / full-length SMN2 transcripts, mean expression level, Thoracic: adult SMA mice, 2x15 mg/kg IV approx. 48 hours apart, tissue 7 days post final administration, normalised to saline treated controls; for full-length SMN2 transcripts, mean expression level, Brainstem / full-length SMN2 transcripts, mean expression level, Cerebellum / full-length SMN2 transcripts, mean expression level, Cortex: Central Nervous System; for full-length SMN2 transcripts, mean expression level, Liver: Off Target; for full-length SMN2 transcripts, mean expression level, Gastroc: Skeletal Muscle (gastrocnemius); for full-length SMN2 transcripts, mean expression level, Quad: Skeletal Muscle (quadriceps); for full-length SMN2 transcripts, mean expression level, TA: Skeletal Muscle (tibialis anterior); for full-length SMN2 transcripts, mean expression level, Cervical / full-length SMN2 transcripts, mean expression level, Lumbar / full-length SMN2 transcripts, mean expression level, Thoracic: spinal cord
Text: Smn1tm1Hung/wt; […]; […] Tissues were harvested one week post administration. […] Statistical significance determined by Student'[…]≤0.00005. […] ID NO.151), Exons 7-8 Rev: [NT] ID NO.152). […] [NT] ID NO.154). […] PolJ Forward: [NT] ID NO.155); PolJ Reverse: [NT]

[1] = test system: SMN2 exon 7 inclusion in GM03813 SMA patient fibroblasts; assay: Cell screening of peptide-PMO conjugates for SMN2 exon 7 inclusion in human SMA patient fibroblast cell culture; type: cell-based; conditions: for cell activity (SMN2 exon 7 inclusion) relative to peptide 14: first screen, FIG. 4, qPCR; for cell activity (SMN2 exon 7 inclusion) relative to peptide 14 / cell activity (SMN2 exon 7 inclusion): 667 nM and 2 μM; for cell activity (SMN2 exon 7 inclusion): second screen, FIG. 5, qPCR; for cell activity (SMN2 exon 7 inclusion) relative to S* peptide: FIG. 6, 4 μM, 2 μM, 1 μM, 500 nM, 250 nM
Protocol: In order to generate further peptide candidates containing a glycosylated Serine residue for in vivo evaluation, the inventors synthesized a range of similarly glycosylated peptides, conjugated them to the same PMO therapeutic and screened the resultant P-PMO conjugates in human SMA patient fibroblast cell culture, which assesses their ability to enter cell nuclei to give exon inclusion.
GM03813 (Coriell Institute) derived from SMA type I patient fibroblast were seeded out at 2500 cells/well in 100 μl Dulbecco's modified Eagle's medium (DMEM) with GlutaMAX and 5% fetal bovine serum (FBS) (Life Technologies, Inc.) in 96 well plates, and incubated for 16 h in a cell culture incubator (37° C., 5% CO2, 100% rel. humidity). On the next day cells were then treated with 10 μl P-PMO at different concentrations (in water) in duplicate for 24 hours. After removal of the supernatant, cells were washed once with PBS-buffer and were lysed in lysis buffer (10 mM Tris, 3 mM MgCl2, 1 mM CaCl2), 1% Triton X-100, 200 u/ml DNase I and 200 u/ml Proteinase K) for 10 min. Afterwards the lysate were transferred into a 96-well plate (Eppendorf twintec) and incubated at 75° C. for 15 min and subsequently cooled to 4° C. and used immediately. The mRNA levels of SMN2 FL, SMN2 Δ7 and GAPDH were quantified using Taqman-based qRT-PCR (Superscript® III Platinium® One Step qRT-PCR, Thermo Fisher) and SMN2 specific Primers and probes (purchased from IDT Integrated DNA Technologies). (19) SMN2 FL and Δ7 mRNAs were normalized to GAPDH. […]

Ac-RXRRBRRQFLRBRXR-B [Peptide 5]
full-length SMN2 transcripts, mean expression level, Brainstem (human SMN2-gene): 1.22 | full-length SMN2 transcripts, mean expression level, Cerebellum (human SMN2-gene): 1 | full-length SMN2 transcripts, mean expression level, Cortex (human SMN2-gene): 1.11 | full-length SMN2 transcripts, mean expression level, Liver (human SMN2-gene): 2.73 | full-length SMN2 transcripts, mean expression level, Gastroc (human SMN2-gene): 2.49**** | full-length SMN2 transcripts, mean expression level, Quad (human SMN2-gene): 2.46**** | full-length SMN2 transcripts, mean expression level, TA (human SMN2-gene): 2.80**** | full-length SMN2 transcripts, mean expression level, Cervical (human SMN2-gene): 1.24* | full-length SMN2 transcripts, mean expression level, Lumbar (human SMN2-gene): 1.25* | full-length SMN2 transcripts, mean expression level, Thoracic (human SMN2-gene): 1.23

Ac-RBRRBRRBRS*FLRBRBR-G [Peptide 29]
cell activity (SMN2 exon 7 inclusion) relative to peptide 14 [1]: less active than the first peptide 14

Ac-RBRRBRRBRS*FLRBRRR-G [Peptide 34]
cell activity (SMN2 exon 7 inclusion) relative to peptide 14 [1]: without a large loss in cell activity

Ac-RRBRRBRS*FLRBRBRBR-G [Peptide 24]
cell activity (SMN2 exon 7 inclusion) relative to peptide 14 [1]: less active than the first peptide 14

Ac-RXRRBRRYQFLIRBRXR-B [Peptide 4]
full-length SMN2 transcripts, mean expression level, Brainstem (human SMN2-gene): 0.98 | full-length SMN2 transcripts, mean expression level, Cerebellum (human SMN2-gene): 0.96 | full-length SMN2 transcripts, mean expression level, Cortex (human SMN2-gene): 1.1 | full-length SMN2 transcripts, mean expression level, Liver (human SMN2-gene): 3.26 | full-length SMN2 transcripts, mean expression level, Gastroc (human SMN2-gene): 3.64**** | full-length SMN2 transcripts, mean expression level, Quad (human SMN2-gene): 2.70**** | full-length SMN2 transcripts, mean expression level, TA (human SMN2-gene): 4.23**** | full-length SMN2 transcripts, mean expression level, Cervical (human SMN2-gene): 1.14* | full-length SMN2 transcripts, mean expression level, Lumbar (human SMN2-gene): 1 | full-length SMN2 transcripts, mean expression level, Thoracic (human SMN2-gene): 1.12

Ac-RS*RRBRRBRBRXR-G [Peptide 59]
cell activity (SMN2 exon 7 inclusion) [1]: no significant alteration in activity levels

Ac-RBRRBRRBR S*FL RBRBRBR-G [Peptide 18]
cell activity (SMN2 exon 7 inclusion) relative to peptide 14 [1]: no significant effect on cell activity

Ac-RXRXRS*RXRXR-G [Peptide 71]
cell activity (SMN2 exon 7 inclusion) [1]: remarkably good activity

Ac-RXRRBRFQILYRBRXR-B [Peptide 7]
full-length SMN2 transcripts, mean expression level, Brainstem (human SMN2-gene): 1.11 | full-length SMN2 transcripts, mean expression level, Cerebellum (human SMN2-gene): 0.97 | full-length SMN2 transcripts, mean expression level, Cortex (human SMN2-gene): 1.01 | full-length SMN2 transcripts, mean expression level, Liver (human SMN2-gene): 3.19 | full-length SMN2 transcripts, mean expression level, Gastroc (human SMN2-gene): 2.92**** | full-length SMN2 transcripts, mean expression level, Quad (human SMN2-gene): 2.80**** | full-length SMN2 transcripts, mean expression level, TA (human SMN2-gene): 3.34**** | full-length SMN2 transcripts, mean expression level, Cervical (human SMN2-gene): 1.26 | full-length SMN2 transcripts, mean expression level, Lumbar (human SMN2-gene): 0.97 | full-length SMN2 transcripts, mean expression level, Thoracic (human SMN2-gene): 1.33

Ac-RBRRBRRRS*FLRBRBRBR-G [Peptide 36]
cell activity (SMN2 exon 7 inclusion) relative to peptide 14 [1]: without a large loss in cell activity

Ac-RBRRBRRBRS*FLRBRBRR-G [Peptide 33]
cell activity (SMN2 exon 7 inclusion) relative to peptide 14 [1]: without a large loss in cell activity

Ac-RXRRBRRXR S*FLRXRBRXR-BB [Peptide 14]
cell penetration in several compartments of the central nervous system and the skeletal muscle compared with currently available peptides 1-7 (human SMN2-gene; Table 3 data): increased | full-length SMN2 transcripts, mean expression level, Brainstem (human SMN2-gene): 1.97*** | full-length SMN2 transcripts, mean expression level, Cerebellum (human SMN2-gene): 1.26 | full-length SMN2 transcripts, mean expression level, Cortex (human SMN2-gene): 1.50* | full-length SMN2 transcripts, mean expression level, Liver (human SMN2-gene): 3.45 | full-length SMN2 transcripts, mean expression level, Gastroc (human SMN2-gene): 2.82**** | full-length SMN2 transcripts, mean expression level, Quad (human SMN2-gene): 2.45*** | full-length SMN2 transcripts, mean expression level, TA (human SMN2-gene): 3.24**** | full-length SMN2 transcripts, mean expression level, Cervical (human SMN2-gene): 1.23** | full-length SMN2 transcripts, mean expression level, Lumbar (human SMN2-gene): 2.23 | full-length SMN2 transcripts, mean expression level, Thoracic (human SMN2-gene): 2.38** | increase in cell penetration / exon inclusion compared with the currently available peptide conjugated to the same antisense oligonucleotide (human SMN2-gene; in vivo, Table 3 data, peptide 17 versus peptide 6, peptide 14 versus peptide 2): up to 59.7%

Ac-RXRRBRRFQILYRBRXR-B [Peptide 3]
full-length SMN2 transcripts, mean expression level, Brainstem (human SMN2-gene): 0.86 | full-length SMN2 transcripts, mean expression level, Cerebellum (human SMN2-gene): 1.025 | full-length SMN2 transcripts, mean expression level, Cortex (human SMN2-gene): 0.93 | full-length SMN2 transcripts, mean expression level, Liver (human SMN2-gene): 4.57 | full-length SMN2 transcripts, mean expression level, Gastroc (human SMN2-gene): 3.4 | full-length SMN2 transcripts, mean expression level, Quad (human SMN2-gene): 3.35**** | full-length SMN2 transcripts, mean expression level, TA (human SMN2-gene): 3.95*** | full-length SMN2 transcripts, mean expression level, Cervical (human SMN2-gene): 0.92 | full-length SMN2 transcripts, mean expression level, Lumbar (human SMN2-gene): 1.1 | full-length SMN2 transcripts, mean expression level, Thoracic (human SMN2-gene): 1

Ac-RXRRBRRXRS*FRXRBRXR-G [Peptide 43]
cell activity (SMN2 exon 7 inclusion) relative to peptide 14 [1]: only a slightly reduced activity

Ac-RBRBRS*RBRBR-G [Peptide 70]
cell activity (SMN2 exon 7 inclusion) [1]: remarkably good activity

Ac-RXRRBRRXRQFLRXRBRXR-B [Peptide 2]
full-length SMN2 transcripts, mean expression level, Brainstem (human SMN2-gene): 1.36*** | full-length SMN2 transcripts, mean expression level, Cerebellum (human SMN2-gene): 1.15* | full-length SMN2 transcripts, mean expression level, Cortex (human SMN2-gene): 1.16* | full-length SMN2 transcripts, mean expression level, Liver (human SMN2-gene): 2.91 | full-length SMN2 transcripts, mean expression level, Gastroc (human SMN2-gene): 2.98**** | full-length SMN2 transcripts, mean expression level, Quad (human SMN2-gene): 2.52**** | full-length SMN2 transcripts, mean expression level, TA (human SMN2-gene): 3.45**** | full-length SMN2 transcripts, mean expression level, Cervical (human SMN2-gene): 1.78** | full-length SMN2 transcripts, mean expression level, Lumbar (human SMN2-gene): 1.48** | full-length SMN2 transcripts, mean expression level, Thoracic (human SMN2-gene): 1.49*

Ac-RXRRBRRFLRBRXR-B [Peptide 6]
full-length SMN2 transcripts, mean expression level, Brainstem (human SMN2-gene): 1.38** | full-length SMN2 transcripts, mean expression level, Cerebellum (human SMN2-gene): 1.05 | full-length SMN2 transcripts, mean expression level, Cortex (human SMN2-gene): 1.13 | full-length SMN2 transcripts, mean expression level, Liver (human SMN2-gene): 2.78 | full-length SMN2 transcripts, mean expression level, Gastroc (human SMN2-gene): 3.22**** | full-length SMN2 transcripts, mean expression level, Quad (human SMN2-gene): 2.89*** | full-length SMN2 transcripts, mean expression level, Cervical (human SMN2-gene): 0.88** | full-length SMN2 transcripts, mean expression level, Lumbar (human SMN2-gene): 1.23* | full-length SMN2 transcripts, mean expression level, Thoracic (human SMN2-gene): 1.37*

Ac-RBRRRRRS*FLRBRBRBR-G [Peptide 37]
cell activity (SMN2 exon 7 inclusion) relative to peptide 14 [1]: without a large loss in cell activity

Ac-RXRRBRRXRRXRBRXRS*FL-G [Peptide 48]
cell activity (SMN2 exon 7 inclusion) relative to peptide 14 [1]: almost as active as the first peptide

Ac-RXRRBRRS*S*S* RBRXR-G [Peptide 68]
cell activity (SMN2 exon 7 inclusion) [1]: retained good activity in cells

Ac-RXRRBRRZS*RBRXR-B [Peptide 73]
cell activity (SMN2 exon 7 inclusion) at low doses ([1]; third screen, FIG. 6): good activity at low doses | cell activity (SMN2 exon 7 inclusion) relative to S* peptide ([1]; third screen): greatly improved alteration in activity levels

Ac-RXRRBRRFS^1*RBRXR-B [Peptide 74]
cell activity (SMN2 exon 7 inclusion) relative to S* peptide ([1]; third screen): Improved activity

Ac-RXRRBRRXRYQFLIRXRBRXR-B [Peptide 1]
full-length SMN2 transcripts, mean expression level, Brainstem (human SMN2-gene): 1.48*** | full-length SMN2 transcripts, mean expression level, Cerebellum (human SMN2-gene): 1.25* | full-length SMN2 transcripts, mean expression level, Cortex (human SMN2-gene): 1.29** | full-length SMN2 transcripts, mean expression level, Liver (human SMN2-gene): 2.81 | full-length SMN2 transcripts, mean expression level, Gastroc (human SMN2-gene): 3.03*** | full-length SMN2 transcripts, mean expression level, Quad (human SMN2-gene): 3.37*** | full-length SMN2 transcripts, mean expression level, TA (human SMN2-gene): 3.30*** | full-length SMN2 transcripts, mean expression level, Cervical (human SMN2-gene): 1.50*** | full-length SMN2 transcripts, mean expression level, Lumbar (human SMN2-gene): 1.28*** | full-length SMN2 transcripts, mean expression level, Thoracic (human SMN2-gene): 1.45***
